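1) Cells in 96-well plates. 2) Compound, 48 h, 5 concentrations. 3) Linear interpolation between surrounding doses. 4) Unreached endpoint = highest concentration. GI50 = concentration required for 50% inhibition of growth. TGI: concentration producing complete growth inhibition.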
Columns and labels:
Experiment in all cases: NCI-60 cell line screen, 48 h
[1] = test system: HS 578T breast
[2] = test system: A498 renal
[3] = test system: SK-OV-3 ovarian
[4] = test system: HT29 colon
[5] = test system: ACHN renal
[6] = test system: HCT-116 colon
[7] = test system: OVCAR-3 ovarian
[8] = test system: NCI-H23 lung
[9] = test system: 786-0 renal
[10] = test system: NCI-H460 lung
[11] = test system: SK-MEL-28 melanoma
[12] = test system: MOLT-4 leukemia
[13] = test system: RPMI-8226 leukemia
[14] = test system: UACC-257 melanoma
[15] = test system: SF-295 CNS
[16] = test system: OVCAR-8 ovarian
[17] = test system: LOX IMVI melanoma
[18] = test system: MDA-MB-231 breast
[19] = test system: OVCAR-4 ovarian
[20] = test system: M14 melanoma
[21] = test system: NCI/ADR-RES ovarian
[22] = test system: MALME-3M melanoma
[23] = test system: CAKI-1 renal
[24] = test system: SNB-19 CNS
[25] = test system: HL-60(TB) leukemia
[26] = test system: SR leukemia
[27] = test system: DU-145 prostate
[28] = test system: TK-10 renal
[29] = test system: MDA-MB-435
[30] = test system: SF-268 CNS
[31] = test system: OVCAR-5 ovarian
[32] = test system: IGROV1 ovarian
[33] = test system: T-47D breast
[34] = test system: A549 NSCLC
[35] = test system: SK-MEL-5 melanoma
[36] = test system: NCI-H226 lung
[37] = test system: U251 CNS
[38] = test system: SF-539 CNS
[39] = test system: COLO 205 colon
[40] = test system: UO-31 renal
[41] = test system: HOP-92 NSCLC
[42] = test system: SK-MEL-2 melanoma
[43] = test system: SN12C renal
[44] = test system: HCC-2998 colon
[45] = test system: SNB-75 CNS
[46] = test system: HOP-62 NSCLC

O=c1oc2cc(OS(=O)(=O)c3ccc(F)cc3)ccc2c2c1CCCCC2
GI50 [1]: 55.2 µM
TGI [1]: > 100 µM
GI50 [2]: > 100 µM
TGI [2]: > 100 µM
GI50 [3]: > 100 µM
TGI [3]: > 100 µM
GI50 [4]: 1.04 µM
TGI [4]: > 100 µM
GI50 [5]: > 100 µM
TGI [5]: > 100 µM
GI50 [6]: 6.24 µM
TGI [6]: > 100 µM
GI50 [7]: > 100 µM
TGI [7]: > 100 µM
GI50 [8]: > 100 µM
TGI [8]: > 100 µM
GI50 [9]: > 100 µM
TGI [9]: > 100 µM
GI50 [10]: > 100 µM
TGI [10]: > 100 µM
GI50 [11]: > 100 µM
TGI [11]: > 100 µM
GI50 [12]: > 100 µM
TGI [12]: > 100 µM
GI50 [13]: 3.7 µM
TGI [13]: > 100 µM
GI50 [14]: > 100 µM
TGI [14]: > 100 µM
GI50 [15]: > 100 µM
TGI [15]: > 100 µM
GI50 [16]: > 100 µM
TGI [16]: > 100 µM
GI50 [17]: > 100 µM
TGI [17]: > 100 µM
GI50 [18]: > 100 µM
TGI [18]: > 100 µM
GI50 [19]: 5.76 µM
TGI [19]: > 100 µM
GI50 [20]: > 100 µM
TGI [20]: > 100 µM
GI50 [21]: > 100 µM
TGI [21]: > 100 µM
GI50 [22]: > 100 µM
TGI [22]: > 100 µM
GI50 [23]: > 100 µM
TGI [23]: > 100 µM
GI50 [24]: > 100 µM
TGI [24]: > 100 µM
GI50 [25]: > 100 µM
TGI [25]: > 100 µM
GI50 [26]: > 100 µM
TGI [26]: > 100 µM
GI50 [27]: > 100 µM
TGI [27]: > 100 µM
GI50 [28]: > 100 µM
TGI [28]: > 100 µM
GI50 [29]: > 100 µM
TGI [29]: > 100 µM
GI50 [30]: > 100 µM
TGI [30]: > 100 µM
GI50 [31]: > 100 µM
TGI [31]: > 100 µM
GI50 [32]: > 100 µM
TGI [32]: > 100 µM
GI50 [33]: 1.86 µM
TGI [33]: > 100 µM
GI50 [34]: > 100 µM
TGI [34]: > 100 µM
GI50 [35]: 5.69 µM
TGI [35]: > 100 µM
GI50 [36]: > 100 µM
TGI [36]: > 100 µM
GI50 [37]: > 100 µM
TGI [37]: > 100 µM
GI50 [38]: > 100 µM
TGI [38]: > 100 µM
GI50 [39]: 2.17 µM
TGI [39]: > 100 µM
GI50 [40]: > 100 µM
TGI [40]: > 100 µM
GI50 [41]: 4.05 µM
TGI [41]: 95.1 µM
GI50 [42]: > 100 µM
TGI [42]: > 100 µM
GI50 [43]: > 100 µM
TGI [43]: > 100 µM
GI50 [44]: > 100 µM
TGI [44]: > 100 µM
GI50 [45]: 19.6 µM
TGI [45]: > 100 µM
GI50 [46]: 45.1 µM
TGI [46]: > 100 µM

— PubChem BioAssay (NCI)
